Experimental findings from patent US9427456B2, “Peptide therapy for increasing platelet levels” (Biokine Therapeutics Ltd., priority 2009, dated 2016) are described below.

“Also recorded” adds a separate entry of the source.

Experiment [1] relates to hematopoietic precursor cells in the bone marrow. In words: Hematopoietic progenitor cells (HPCs) colony-forming cell assay, bone marrow of treated mice. The experiment is classed as in vivo, C57BL/6 mice. The note with it: bone marrow at day 5; colonies scored after seven days of culture; same regimens as Table 2. The method, then: (§1) 4F-benzoyl-TN14003 and Thrombopoietin were reconstituted in PBS at various concentrations. Mice were injected subcutaneously in a total volume of 200 μl. 4F-benzoyl-TN14003 (100 ug/mouse, 5 mg/Kg) was injected for 5 days, once a day and at day 5 blood was collected and tested for platelets counts and hematopoietic colonies were tested in the bone marrow. Thrombopoietin was injected 3 times once a day, at (0.5 ug/mouse), and blood was collected and tested for platelets counts and hematopoietic colonies were tested in the bone marrow at day 5. In another group 4F-benzoyl-TN14003 (100 ug/mouse) was injected for 5 days, once a day and at days 3, 4 and 5 mice were further injected with Thrombopoietin (namely 3 times once a day, at 0.5 ug/mouse). Blood was collected and tested for platelets counts and hematopoietic colonies were tested in the bone marrow at day 5. Control mice were injected with PBS at the appropriate volume and blood was collected and tested for platelets counts and hematopoietic colonies in the bone marrow at day 5.
In order to evaluate the number of progenitor cells in the Bone marrow, a colony-forming cell assay was used for the production of hematopoietic colonies following treatments. […] Seven days later, typical colonies were visually scored by morphologic criteria using a light microscope.

The subject of experiment [2] is blood platelets. In words: Chemotherapy (5FU)-induced thrombocytopenia model in mice. The experiment is classed as in vivo. The following applies: for Levels of platelets in blood before and after 5FU: 5FU 150 mg/kg i.p. day 0, peptide 5 mg/Kg s.c. daily 5 days before and from day 1 after 5FU, G-CSF 5 μg/mouse daily from day 1, TPO 0.5 μg/mouse 3 days before 5FU, FIG. 4-6. The method, then: In the chemotherapy experiments 5-fluorouracil (5FU) at 150 mg/kg was dissolved in saline and injected intraperitoneally (on day 0). The mice were treated with 4F-benzoyl-TN14003 (5 mg/Kg) for 5 days or with TPO (0.5 μg/mouse) for 3 days before treatment with 5FU. 4F-benzoyl-TN14003 treated mice were further treated daily with 4F-benzoyl-TN14003 (5 mg/Kg) one day after 5FU administration and the treatment was continued until the end of the experiment. Blood samples were collected 1 hr following 4F-benzoyl-TN14003 administration or control (PBS) injection]; total blood counts were tested by American Medical Laboratories, Israel. In some experiments, G-CSF was s.c. injected daily, one day after 5FU administration until the end of the experiment, at final concentration of 5 μg/mouse in total volume of 0.2 ml.
The platelet modulating effects were then examined in a chemotherapy-induced thrombocytopenia model in mice. In these experiments, 5-fluorouracil (“5FU”) at 150 mg/kg dissolved in saline was injected intraperitoneally to all mice (on day 0). Some of the mice were further treated with 4F-benzoyl-TN14003 (5 mg/Kg, once daily S.C. injections) for 5 days before treatment with 5FU, and Mice were further treated daily with 4F-benzoyl-TN14003 (5 mg/Kg) one day after 5FU and the treatment was continued until the end of the experiment. Blood samples were collected 1 hr following administration of 4F-benzoyl-TN14003 or control (PBS) injection. […] In FIG. 4, diamonds represent control (PBS treated) mice; open squares represent 4F-benzoyl-TN14003 treated mice.
Next, the effect of the peptide on mice treated with 5FU with or without G-CSF was examined. G-CSF administration (as daily S.C. injections, 5 μg/mouse) was initiated one day after 5FU treatment and continued until the end of the experiment. 5FU and 4F-benzoyl-TN14003 administration and blood sample collection were as specified above for FIG. 4. […] In FIG. 5, diamonds represent control (PBS treated) mice; open squares represent 4F-benzoyl-TN14003 treated mice; triangles represent G-CSF treated mice; and crosses represent mice treated with G-CSF and 4F-benzoyl-TN14003.
The activity of the peptide in the chemotherapy-induced thrombocytopenia model was then compared to that of TPO. In the TPO group, mice were treated with a single dose of TPO (0.5 μg/mouse) for 3 days before treatment with 5FU. 5FU and 4F-benzoyl-TN14003 administration and blood sample collection were as specified above for FIG. 4. […] In FIG. 6, diamonds represent control (PBS treated) mice; open squares represent 4F-benzoyl-TN14003 treated mice; and triangles represent TPO treated mice.

Experiment [3] has as its system blood platelets. In words: Blood platelet counts in healthy mice after s.c. injection. The experiment is classed as in vivo, C57BL/6 mice. The following applies: for Platelets (×10^3): blood at day 5, s.c., 4F-benzoyl-TN14003 100 ug/mouse (5 mg/Kg) once a day for 5 days, TPO 0.5 ug/mouse 3 times once a day (days 3-5 in combination); for % increase (platelet counts): versus PBS control, day 5, same regimens as platelet counts. On the procedure: Female C57BL/6 mice (7-8 weeks old) were purchased from Harlan Israel and maintained under specific pathogen-free conditions at the Hebrew University Animal Facility (Jerusalem, Israel).
as §1
In the experiments described in FIG. 2, mice were injected subcutaneously with 4F-benzoyl-TN14003 at a dose of 5 mg/kg, administered either as a once daily injection or divided into two doses administered b.i.d. Blood platelet levels were measured 1, 2 or 3 days later.
In FIG. 3, “Male control” and “Female control” indicate PBS-treated male and female mice, respectively; “Male+4FB-T140” and “Female+4FB-T140” indicate male or female mice treated with 4F-benzoyl-TN14003 (5 mg/kg)

Experiment [4] relates to blood platelets. In words: Clinical study: single dose in Multiple Myeloma patients receiving Cyclophosphamide and G-CSF, blood platelet levels. The experiment is classed as in vivo, human. On the procedure: A Phase […], non-Randomized, Open Label, Single Dose, Dose-Escalation, Safety Study of 4F-benzoyl-TN14003 was conducted in patients with Multiple Myeloma (MM) receiving G-CSF for inducing mobilization of progenitor stem cells from the Bone Marrow to the peripheral blood.
All eligible patients received, in an ambulatory setting, as part of their planned therapy: Cyclophosphamide—(the generic name for Cytoxan, Neosar), 4 gr/m^2 according to the accepted MM practice. G-CSF (neupogen) was initiated 5 days later and continued until the end of stem cell collection, administered SC at 5 μg/kg per day every day after 18:00. Monitoring the WBC and platelets was done after 7 and 10 days, and until stem cell collection. Stem cell collection was performed according to the protocol of WBC over 1,000 cells.
4F-benzoyl-TN14003 was injected after 10 days, as a single dose of 30, 100, 300 or 900 μg/Kg. The follow-up post injection included counting WBC and platelets levels at points of 30 min, 1 hr, 2 hr, 4 hr, 8 hr, 24 hr.
MM patients undergoing chemotherapy with Cyclophosphamide, received G-CSF according to a clinical protocol for inducing HPC mobilization for subsequent harvesting and transplantation. 10 days after Cyclophosphamide and G-CSF treatment, the patients received 4F-benzoyl-TN14003 injected at a dose of 0.9 mg/kg. […]

Consider Thrombopoietin [TPO], for which the “Colonies (HPC counts, colony forming cells in bone marrow)” value in experiment [1] is recorded as 150.2. Besides, the “Levels of platelets in blood before and after 5FU” value (“Levels of platelets” for short) in the experiment with blood platelets [2] is given as “elevated blood platelet levels before or after 5FU administration”. Also, in the experiment on blood platelets [3], the “Platelets (×10^3)” value was 1556 ×10^3 and the “% increase (platelet counts)” value is on record as 32%.

Regarding “4F-benzoyl-Arg-Arg-Nal-Cys-Tyr-Cit-Lys-DLys-Pro-Tyr-Arg-Cit-Cys-Arg-NH2 [4F-benzoyl-TN14003]”, in experiment [1], the “Colonies (HPC counts, colony forming cells in bone marrow)” value was determined as 148.2. Also, the “Levels of platelets” value in the experiment with blood platelets [2] is “enhanced the levels of platelets in blood before and after treatment with 5FU; also recorded: elevated blood platelet levels before or after 5FU administration”. For the same molecule, the “Platelet levels after 10 days of administration, compared with TPO and control” value in the experiment with blood platelets [2] (5FU model, FIG. 6) is recorded as “higher in 4F-benzoyl-TN14003-treated mice than in TPO-treated mice or control mice”. In the experiment on blood platelets [2] (thrombocytopenia induced by chemotherapy), the “Potency relative to TPO in enhancing platelet levels and reducing chemotherapy-induced thrombocytopenia” value is “more potent than TPO”. In addition, the “Time after administration at which platelet increase could be detected” value with blood platelets [4] (0.9 mg/kg single injection, MM patients) was found to be 30 min. Besides, the “Number of platelets in the blood after single injection” value in the experiment with blood platelets [4] (0.9 mg/kg, 10 days after Cyclophosphamide and G-CSF, still observed after 1, 2, 4 or 8 hours, FIG. 7) is “immediate increase in the number of platelets in the blood”. In addition, the “Blood platelet levels after a single injection” value in the experiment on blood platelets [3] (5 mg/kg s.c., once daily or divided b.i.d., measured 1, 2 or 3 days later, FIG. 2) is recorded as “significant elevation in blood platelet levels”. In the experiment on blood platelets [3] (5 mg/kg, measured 3 days post administration, FIG. 3), the “Blood platelet levels in male and female mice” value is reported as “enhanced blood platelet levels”. Besides, in the experiment on blood platelets [3], the “Platelets (×10^3)” value is given as 1551 ×10^3 and the “% increase (platelet counts)” value worked out at 32%. Moreover, the “Effect on TPO activity in enhancing platelets levels” value with blood platelets [3] (combination with TPO, mice, FIG. 1) was “potentiates the activity of TPO in enhancing platelets levels in vivo”. Besides, the “Potency relative to TPO in stimulating production of platelets” value with blood platelets [3] (healthy C57B1 mice) was “as potent as TPO”.

B1: granulocyte-colony stimulating factor (protein, UniProt P09919 31-207, looked up)
Granulocyte …: TPLGPASSLPQSFLLKCLEQVRKIQGDGAALQEKLVSECATYKLCHPEELVLLGHSLGIPWAPLSSCPSQALQLAGCLSQLHSGLFLYQGLLQALEGISPELGPTLDTLQLDVADFATTIWQQMEELGMAPALQPTQGAMPAFASAFQRRAGGVLVASHLQSFLEVSYRVLRHLAQP
notes: granulocyte-colony stimulating factor, s.c. injected daily at 5 μg/mouse
Turning to B1, in the experiment on blood platelets [2], the “Levels of platelets” value is recorded as “no effect on blood platelet levels; also recorded: had no effect on platelet levels”.
